Consider ten molecules from PubChem BioAssay (NCI).

Molecules are shown by their SMILES.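 Results reflect a 48-hour exposure of cells in 96-well plates to compound at five concentrations. At the GI50, growth is halved. TGI: total growth inhibition.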

The test system of the first test is HOP-92 NSCLC. Briefly: NCI-60 cell line screen, 48 h.
Take `Fc1c(F)c(C(F)(F)F)c(F)c(F)c1N/N=C\c1c[nH]c2ccccc12`: the TGI was determined as 16.5 µM.
In turn, `COc1cc2c(/C=C3/C(=O)Nc4ccc(Cl)cc43)c(Cl)n(Cc3ccccc3)c2cc1C` displayed a TGI of 25.9 µM.
The same measure, in the same setting: with `O=C(O)C(=C\c1ccc2c(c1)OCO2)/C(=C/c1ccc2c(c1)OCO2)C(=O)O` the figure was greater than 100 µM.
As for `COc1ccc(-c2ccc(-c3ccc(C(=N)N)nc3)s2)cc1`, the GI50 is 1.5 µM and the TGI was found to be 3.07 µM.
For `N#CC(C#N)=CN1CCN(C(=O)c2ccco2)C1=S`, in that order: 22.4 µM and greater than 100 µM.
In the same order, the values of `COc1ccc2c(c1)CC[C@@H]1[C@@H]2CC[C@]2(C)C(=O)C3(CCCCC3)C[C@@H]12` are greater than 100 µM and greater than 100 µM.
Consider `NS(=O)(=O)c1cc2c(cc1Cl)NC(C(=O)c1cc(=O)c3ccc(O)cc3o1)=NS2(=O)=O`, for which the TGI was greater than 100 µM.
Still for that read-out and setting: with `CC(=O)OCC(=O)[C@@]1(O)CC[C@H]2[C@@H]3CCC4=CC(=O)[C@H](C)C[C@]4(C)[C@H]3[C@@H](O)C[C@@]21C` the figure was greater than 100 µM.
Still for that read-out and setting: under `Cc1c(C#N)c2nnn(C)c(=O)n2c1-c1ccccc1` stands greater than 100 µM.

Another test has as its system KM12 colon. Briefly: NCI-60 cell line screen, 48 h.
`Fc1c(F)c(C(F)(F)F)c(F)c(F)c1N/N=C\c1c[nH]c2ccccc12` returned a TGI of 4.06 µM.
Molecule `COc1cc2c(/C=C3/C(=O)Nc4ccc(Cl)cc43)c(Cl)n(Cc3ccccc3)c2cc1C` gave a TGI of 5.64 µM.
The molecule `O=C(O)C(=C\c1ccc2c(c1)OCO2)/C(=C/c1ccc2c(c1)OCO2)C(=O)O` had a TGI greater than 100 µM.
For `COc1ccc(-c2ccc(-c3ccc(C(=N)N)nc3)s2)cc1`, the GI50 is 1.81 µM and the TGI came out at 3.3 µM.
Turning to `N#CC(C#N)=CN1CCN(C(=O)c2ccco2)C1=S`, the GI50 was 4.12 µM and the TGI came out at 32.2 µM.
`COc1ccc2c(c1)CC[C@@H]1[C@@H]2CC[C@]2(C)C(=O)C3(CCCCC3)C[C@@H]12`: the GI50 is greater than 100 µM and the TGI was greater than 100 µM.
On to `NS(=O)(=O)c1cc2c(cc1Cl)NC(C(=O)c1cc(=O)c3ccc(O)cc3o1)=NS2(=O)=O`, for which the TGI was greater than 100 µM.
Same read-out and setting: with `CC(=O)OCC(=O)[C@@]1(O)CC[C@H]2[C@@H]3CCC4=CC(=O)[C@H](C)C[C@]4(C)[C@H]3[C@@H](O)C[C@@]21C` the figure was greater than 100 µM; with `O=C(NO)c1ccc([N+](=O)[O-])cc1`, greater than 100 µM.
Same read-out and setting: under `Cc1c(C#N)c2nnn(C)c(=O)n2c1-c1ccccc1` stands greater than 100 µM.

The next test relates to U251 CNS. Put plainly: NCI-60 cell line screen, 48 h.
`Fc1c(F)c(C(F)(F)F)c(F)c(F)c1N/N=C\c1c[nH]c2ccccc12`: the TGI was found to be 12.8 µM.
`O=C(O)C(=C\c1ccc2c(c1)OCO2)/C(=C/c1ccc2c(c1)OCO2)C(=O)O` displayed a TGI greater than 100 µM.
For the molecule `N#CC(C#N)=CN1CCN(C(=O)c2ccco2)C1=S`, the GI50 is 6.54 µM and the TGI was greater than 100 µM.
For `COc1ccc2c(c1)CC[C@@H]1[C@@H]2CC[C@]2(C)C(=O)C3(CCCCC3)C[C@@H]12`, in that order: greater than 100 µM and greater than 100 µM.
`NS(=O)(=O)c1cc2c(cc1Cl)NC(C(=O)c1cc(=O)c3ccc(O)cc3o1)=NS2(=O)=O` registered a TGI greater than 100 µM.
On the same count and under the same terms, with `CC(=O)OCC(=O)[C@@]1(O)CC[C@H]2[C@@H]3CCC4=CC(=O)[C@H](C)C[C@]4(C)[C@H]3[C@@H](O)C[C@@]21C` the figure was greater than 100 µM.
On the same count and under the same terms, with `O=C(NO)c1ccc([N+](=O)[O-])cc1` the figure was greater than 100 µM; with `Cc1c(C#N)c2nnn(C)c(=O)n2c1-c1ccccc1`, greater than 100 µM.

The next test has as its system UO-31 renal. Briefly: NCI-60 cell line screen, 48 h.
Turning to `Fc1c(F)c(C(F)(F)F)c(F)c(F)c1N/N=C\c1c[nH]c2ccccc12`, the TGI was 3.85 µM.
Still for that read-out and setting: with `COc1cc2c(/C=C3/C(=O)Nc4ccc(Cl)cc43)c(Cl)n(Cc3ccccc3)c2cc1C` the figure was 6.78 µM.
Still for that read-out and setting: under `O=C(O)C(=C\c1ccc2c(c1)OCO2)/C(=C/c1ccc2c(c1)OCO2)C(=O)O` stands greater than 100 µM.
In the case of `COc1ccc(-c2ccc(-c3ccc(C(=N)N)nc3)s2)cc1`, the GI50 was 1.64 µM and the TGI was 3.08 µM.
Take `N#CC(C#N)=CN1CCN(C(=O)c2ccco2)C1=S`: the GI50 is 10.5 µM and the TGI was found to be 30.1 µM.
As to `COc1ccc2c(c1)CC[C@@H]1[C@@H]2CC[C@]2(C)C(=O)C3(CCCCC3)C[C@@H]12`, the GI50 was greater than 100 µM and the TGI is greater than 100 µM.
`NS(=O)(=O)c1cc2c(cc1Cl)NC(C(=O)c1cc(=O)c3ccc(O)cc3o1)=NS2(=O)=O` displayed a TGI greater than 100 µM.
The molecule `O=C(NO)c1ccc([N+](=O)[O-])cc1` gave a TGI greater than 100 µM.
`Cc1c(C#N)c2nnn(C)c(=O)n2c1-c1ccccc1` returned a TGI greater than 100 µM.

In the next test the test system is OVCAR-5 ovarian. Briefly: NCI-60 cell line screen, 48 h.
Take `Fc1c(F)c(C(F)(F)F)c(F)c(F)c1N/N=C\c1c[nH]c2ccccc12`: the TGI came out at 14.3 µM.
On the same count and under the same terms, under `COc1cc2c(/C=C3/C(=O)Nc4ccc(Cl)cc43)c(Cl)n(Cc3ccccc3)c2cc1C` stands 7.06 µM.
Same read-out and setting: with `O=C(O)C(=C\c1ccc2c(c1)OCO2)/C(=C/c1ccc2c(c1)OCO2)C(=O)O` the figure was greater than 100 µM.
In the case of `COc1ccc(-c2ccc(-c3ccc(C(=N)N)nc3)s2)cc1`, the GI50 was 1.67 µM and the TGI was 3.11 µM.
The molecule `NS(=O)(=O)c1cc2c(cc1Cl)NC(C(=O)c1cc(=O)c3ccc(O)cc3o1)=NS2(=O)=O` showed a TGI greater than 100 µM.
The same measure, in the same setting: with `CC(=O)OCC(=O)[C@@]1(O)CC[C@H]2[C@@H]3CCC4=CC(=O)[C@H](C)C[C@]4(C)[C@H]3[C@@H](O)C[C@@]21C` the figure was greater than 100 µM; with `Cc1c(C#N)c2nnn(C)c(=O)n2c1-c1ccccc1`, greater than 100 µM.

In the next test the test system is HL-60(TB) leukemia. Briefly: NCI-60 cell line screen, 48 h.
With `Fc1c(F)c(C(F)(F)F)c(F)c(F)c1N/N=C\c1c[nH]c2ccccc12`, the TGI came out at 9.25 µM.
Same read-out and setting: under `COc1cc2c(/C=C3/C(=O)Nc4ccc(Cl)cc43)c(Cl)n(Cc3ccccc3)c2cc1C` stands 17.4 µM; under `O=C(O)C(=C\c1ccc2c(c1)OCO2)/C(=C/c1ccc2c(c1)OCO2)C(=O)O`, greater than 100 µM.
As to `N#CC(C#N)=CN1CCN(C(=O)c2ccco2)C1=S`, the GI50 is 19.8 µM and the TGI was 58.1 µM.
`COc1ccc2c(c1)CC[C@@H]1[C@@H]2CC[C@]2(C)C(=O)C3(CCCCC3)C[C@@H]12`: the GI50 was greater than 100 µM and the TGI was greater than 100 µM.
As for `NS(=O)(=O)c1cc2c(cc1Cl)NC(C(=O)c1cc(=O)c3ccc(O)cc3o1)=NS2(=O)=O`, the TGI is greater than 100 µM.
Still for that read-out and setting: with `CC(=O)OCC(=O)[C@@]1(O)CC[C@H]2[C@@H]3CCC4=CC(=O)[C@H](C)C[C@]4(C)[C@H]3[C@@H](O)C[C@@]21C` the figure was greater than 100 µM.
Same read-out and setting: under `O=C(NO)c1ccc([N+](=O)[O-])cc1` stands 50.9 µM; under `Cc1c(C#N)c2nnn(C)c(=O)n2c1-c1ccccc1`, greater than 100 µM.

In the next test the test system is SNB-19 CNS. Put plainly: NCI-60 cell line screen, 48 h.
As for `Fc1c(F)c(C(F)(F)F)c(F)c(F)c1N/N=C\c1c[nH]c2ccccc12`, the TGI came to 12 µM.
Same read-out and setting: under `COc1cc2c(/C=C3/C(=O)Nc4ccc(Cl)cc43)c(Cl)n(Cc3ccccc3)c2cc1C` stands 8.98 µM; under `O=C(O)C(=C\c1ccc2c(c1)OCO2)/C(=C/c1ccc2c(c1)OCO2)C(=O)O`, greater than 100 µM.
Regarding `N#CC(C#N)=CN1CCN(C(=O)c2ccco2)C1=S`, the GI50 was 38.7 µM and the TGI is 82 µM.
In the same order, the values of `COc1ccc2c(c1)CC[C@@H]1[C@@H]2CC[C@]2(C)C(=O)C3(CCCCC3)C[C@@H]12` are greater than 100 µM and greater than 100 µM.
Take `NS(=O)(=O)c1cc2c(cc1Cl)NC(C(=O)c1cc(=O)c3ccc(O)cc3o1)=NS2(=O)=O`: the TGI is greater than 100 µM.
For the molecule `CC(=O)OCC(=O)[C@@]1(O)CC[C@H]2[C@@H]3CCC4=CC(=O)[C@H](C)C[C@]4(C)[C@H]3[C@@H](O)C[C@@]21C`, the TGI was greater than 100 µM.
Still for that read-out and setting: with `O=C(NO)c1ccc([N+](=O)[O-])cc1` the figure was greater than 100 µM; with `Cc1c(C#N)c2nnn(C)c(=O)n2c1-c1ccccc1`, greater than 100 µM.

The test system of a further test is SF-268 CNS. Briefly: NCI-60 cell line screen, 48 h.
Turning to `Fc1c(F)c(C(F)(F)F)c(F)c(F)c1N/N=C\c1c[nH]c2ccccc12`, the TGI turned out to be 19.4 µM.
`COc1cc2c(/C=C3/C(=O)Nc4ccc(Cl)cc43)c(Cl)n(Cc3ccccc3)c2cc1C`: the TGI was greater than 100 µM.
With `COc1ccc(-c2ccc(-c3ccc(C(=N)N)nc3)s2)cc1`, the GI50 was 1.76 µM and the TGI turned out to be 3.28 µM.
`N#CC(C#N)=CN1CCN(C(=O)c2ccco2)C1=S`: the GI50 is 31.4 µM and the TGI worked out at 89.4 µM.
In turn, `NS(=O)(=O)c1cc2c(cc1Cl)NC(C(=O)c1cc(=O)c3ccc(O)cc3o1)=NS2(=O)=O` registered a TGI greater than 100 µM.
The molecule `CC(=O)OCC(=O)[C@@]1(O)CC[C@H]2[C@@H]3CCC4=CC(=O)[C@H](C)C[C@]4(C)[C@H]3[C@@H](O)C[C@@]21C` displayed a TGI greater than 100 µM.
Same read-out and setting: under `O=C(NO)c1ccc([N+](=O)[O-])cc1` stands greater than 100 µM; under `Cc1c(C#N)c2nnn(C)c(=O)n2c1-c1ccccc1`, greater than 100 µM.

A further test has as its system HCC-2998 colon. Briefly: NCI-60 cell line screen, 48 h.
Consider `Fc1c(F)c(C(F)(F)F)c(F)c(F)c1N/N=C\c1c[nH]c2ccccc12`, for which the TGI was 4.19 µM.
`O=C(O)C(=C\c1ccc2c(c1)OCO2)/C(=C/c1ccc2c(c1)OCO2)C(=O)O` yielded a TGI greater than 100 µM.
On to `COc1ccc(-c2ccc(-c3ccc(C(=N)N)nc3)s2)cc1`, for which the GI50 is 1.82 µM and the TGI came out at 3.41 µM.
For `COc1ccc2c(c1)CC[C@@H]1[C@@H]2CC[C@]2(C)C(=O)C3(CCCCC3)C[C@@H]12`, in that order: greater than 100 µM and greater than 100 µM.
The molecule `NS(=O)(=O)c1cc2c(cc1Cl)NC(C(=O)c1cc(=O)c3ccc(O)cc3o1)=NS2(=O)=O` came in with a TGI greater than 100 µM.
The same measure, in the same setting: under `CC(=O)OCC(=O)[C@@]1(O)CC[C@H]2[C@@H]3CCC4=CC(=O)[C@H](C)C[C@]4(C)[C@H]3[C@@H](O)C[C@@]21C` stands greater than 100 µM; under `O=C(NO)c1ccc([N+](=O)[O-])cc1`, greater than 100 µM; under `Cc1c(C#N)c2nnn(C)c(=O)n2c1-c1ccccc1`, greater than 100 µM.

For a further test, the system named is SR leukemia. Briefly: NCI-60 cell line screen, 48 h.
`Fc1c(F)c(C(F)(F)F)c(F)c(F)c1N/N=C\c1c[nH]c2ccccc12` registered a TGI of 9.19 µM.
Still for that read-out and setting: under `COc1cc2c(/C=C3/C(=O)Nc4ccc(Cl)cc43)c(Cl)n(Cc3ccccc3)c2cc1C` stands 5.9 µM; under `O=C(O)C(=C\c1ccc2c(c1)OCO2)/C(=C/c1ccc2c(c1)OCO2)C(=O)O`, greater than 100 µM.
With `COc1ccc2c(c1)CC[C@@H]1[C@@H]2CC[C@]2(C)C(=O)C3(CCCCC3)C[C@@H]12`, the GI50 is greater than 100 µM and the TGI is greater than 100 µM.
The molecule `NS(=O)(=O)c1cc2c(cc1Cl)NC(C(=O)c1cc(=O)c3ccc(O)cc3o1)=NS2(=O)=O` showed a TGI greater than 100 µM.
On the same count and under the same terms, with `CC(=O)OCC(=O)[C@@]1(O)CC[C@H]2[C@@H]3CCC4=CC(=O)[C@H](C)C[C@]4(C)[C@H]3[C@@H](O)C[C@@]21C` the figure was greater than 100 µM.
